Holding throughout (experiment): NCI anticancer screen, dose series, 48 h
In test [1] the test system is CAKI-1 renal.
Test [2] relates to HCC-2998 colon.
Test [3] deals with HCT-116 colon.
The test system of test [4] is HL-60(TB) leukemia.
For test [5], the system named is HOP-62 NSCLC.
Test [6] concerns HOP-92 NSCLC.
Test [7] deals with MDA-MB-231 breast.
Test [8] has as its system MOLT-4 leukemia.
Test [9] relates to PC-3 prostate.
For test [10], the system named is RXF 393 renal.

Each structure is given as a SMILES string.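 Values below derive from 48-hour exposures of cells grown in 96-well plates, with endpoints linearly interpolated between the two concentrations bracketing the appropriate inhibition level. GI50 = concentration required for 50% inhibition of growth. At the TGI there is no net growth.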

With `CC(C)(C)OC(=O)N[C@@H](Cc1ccccc1)C(=O)N(Cc1ccccc1)C1(C(=O)NCc2ccccc2)CCN(Cc2ccccc2)CC1`, the GI50 in [1] is 2320 nM; in [2], 4540 nM; in test [3], 2420 nM; in test [4] it was 2500 nM; in test [5], 3890 nM; in test [6], 1450 nM. Also, the GI50 in [7] was 3010 nM; in test [8], 1830 nM; in [9], 2460 nM; in [10], 3120 nM. Moreover, the TGI in [1] is above 100 µM; in test [2], above 100 µM; in [3], 10.1 µM; in test [4], 6.1 µM; in [5], above 100 µM; in [6], 5.33 µM. Further, the TGI in test [7] was 79 µM; in [8], 6.33 µM; in test [9], above 100 µM; in test [10], above 100 µM.
Consider `O=C1NC(c2ccccc2)C2(C(=O)O)CN(C3CC3)c3cc(N4CCNCC4)c(F)cc3C2N1` (centres undefined), for which the GI50 in test [1], in [2], in test [3], in test [4], in [5] and in [6] was above 100000 nM each time. Besides, the GI50 in test [7], in test [8], in test [9] and in test [10] was above 100000 nM each time. The TGI in [1], in test [2], in test [3], in test [4], in [5] and in [6] was above 100 µM throughout. Moreover, the TGI in test [7], in test [8], in [9] and in test [10] was above 100 µM in each case.
Take `COc1ccc2c(c1OC)C(=O)N1C2=Cc2c(cc3c(c2OC)OCO3)CC1N(C)C` (centres undefined): the TGI was above 100 µM in [1]; above 100 µM in test [2]; above 100 µM in [3]; 80.1 µM in [4]; above 100 µM in test [5]; above 100 µM in test [6]. For the same molecule, the TGI in test [7], in test [8], in test [9] and in test [10] was above 100 µM each time.
With `O=C[C@@H](CO)O[C@H](C=O)n1cnc2c(=O)[nH]cnc21`, the TGI in test [1] was determined as 1590 µM; in test [2], 1200 µM; in test [3], 1270 µM; in [4], 217 µM; in test [5] it was 630 µM; in test [6] it was 865 µM. The TGI in test [7] turned out to be 1010 µM; in test [8] it was 686 µM; in test [9], 1780 µM; in [10] it was 1470 µM.
Take `CCn1c2ccccc2c2cc(C(=O)c3ccc(C)c4ccccc34)ccc21`: the GI50 in [1] is 1610 nM; in test [2] it was 549 nM; in test [3] it was 344 nM; in [4], 307 nM; in test [5], 476 nM; in test [6], 280 nM. Further, the GI50 in [7] is 824 nM; in test [8] it was 57.8 nM; in [9] it was 392 nM; in [10] it was 350 nM. Moreover, the TGI in test [1] is above 100 µM; in [2], 3.8 µM; in test [3], 14.5 µM; in test [4], 2 µM; in test [5], above 100 µM; in test [6], 6.87 µM. Also, the TGI in test [7] was above 100 µM; in [8], above 100 µM; in [9], above 100 µM; in test [10], 2.71 µM.
With `COc1ccc(S(=O)(=O)N(C(C)=O)c2ccccc2/C=C/c2cc[n+]([O-])cc2)cc1`, the GI50 in test [1] is 588 nM; in [2], 2270 nM; in [3], 542 nM; in test [4] it was 640 nM; in test [5] it was 860 nM; in test [7], 1260 nM. In addition, the GI50 in test [8] was 1250 nM; in test [9] it was 688 nM; in test [10] it was 456 nM. The TGI was above 10 µM in test [1]; above 10 µM in [2]; above 10 µM in test [3]; above 6.53 µM in [4]; above 10 µM in [5]; above 10 µM in test [6]. The TGI is above 10 µM in [7], above 10 µM in test [8], above 10 µM in test [9] and above 6.85 µM in test [10].
